From US20100172854A1, “ANTIBACTERIAL FORMULATIONS” (priority 2007, published 2010) come the findings set out here.

Converted amounts (≈) assume the structure as drawn.

Common to all, as to assay type: cell-based
Assay [1] has as its system Propionibacterium acnes NCTC 737. Description: MBC assay. Particulars: P. acnes NCTC 737; for MBC: Cutibacterium acnes, NCTC737. The protocol:
(§1) The propionibacteria were cultured and maintained on Wilkins-Chalgren Anaerobe Medium (agar and broth) at pH 6.0; all cultures were incubated anaerobically at 37° C. for 72 hours.
(§2) This assay, normally carried out after an MIC assay, determines the minimum concentration of a compound that is lethal to the micro-organism being tested.
(§3) These samples were then individually sub-cultured on antibiotic-free agar medium, under the incubation conditions described above. Following incubation they were examined visually for microbial growth.

For assay [2], the system named is Staphylococcus aureus ATCC 29213. Description: MBC assay. Particulars: S. aureus ATCC 29213; for MBC: Staphylococcus aureus, ATCC29213. The protocol:
(§4) The staphylococci were cultured and maintained on Mueller-Hinton Medium (agar and broth) at pH 7.2; cultures were incubated aerobically at 37° C. for 19-20 hours.
as §2, §3

The subject of assay [3] is Propionibacterium acnes NCTC 737. Put plainly: MIC assay. The note with it: Cutibacterium acnes, NCTC737; P. acnes NCTC 737. The protocol: as §1
(§5) This is a standard international method for quantitatively assessing the antimicrobial activity of a compound in a liquid medium. The method used a sterile 96-well microtitre plate, capable of holding about 200 μl of liquid per well. The wells contained liquid culture medium and ranges of decreasing concentrations of the relevant test compound in doubling dilutions (e.g. 1000, 500, 250, 125 . . . μg/ml, etc. down to 0.49 μg/ml). The culture media were as described above.
(§6) The wells were inoculated with a liquid suspension of freshly grown micro-organism and incubated under the conditions described above. After incubation, the microtitre plate was examined visually (with the aid of a light box) for cloudiness in each well, which would indicate microbial growth. The MIC value was recorded as the lowest concentration of test compound required to inhibit microbial growth, i.e. the lowest concentration for which the liquid in the well remained clear.
(§7) The assays included both negative (culture medium with no micro-organisms) and positive (culture medium plus diluting solvent plus micro-organism) controls.

Assay [4] deals with Staphylococcus aureus ATCC 29213. Description: MIC assay. The note with it: ATCC29213, S. aureus ATCC 29213. The protocol:
as §4, §5, §6, §7

Assay [5] concerns Streptococcus mutans ATCC 35668. Put plainly: MIC assay. Particulars: ATCC35668. The protocol: (§8) The S. mutans strains were cultured and maintained on Wilkins-Chalgren Anaerobe Medium (agar and broth) at pH 7.0 supplemented with 1 g/L glucose; all cultures were incubated at 37° C. for 48 h in an atmosphere containing 5% CO2.
as §5, §6, §7

The test system of assay [6] is Streptococcus mutans ATCC 25175. Put plainly: MIC assay. The note with it: ATCC25175. The protocol:
as §8, §5, §6, §7

For assay [7], the system named is Actinomyces naeslundii ATCC 12104. Put plainly: MIC assay. Particulars: ATCC12104, read-out: MIC. The protocol: as §5, §6, §7
In assay [8] the test system is Corynebacterium mucifaciens ATCC 700355. Description: MIC assay. The note with it: C. mucifaciens ATCC 700355. The protocol:
as §5, §6, §7

Assay [9] relates to Clostridium sporogenes ATCC 3584. Description: MIC assay. Particulars: ATCC3584. The protocol: as §5, §6, §7
Assay [10] concerns Clostridium difficile ATCC 7000057. Description: MIC assay. Particulars: Clostridioides difficile, ATCC7000057. The protocol: as §5, §6, §7
For assay [11], the system named is Prevotella nigrescens ATCC 33563. Description: MIC assay. The note with it: ATCC33563. The protocol: as §5, §6, §7
Assay [12] concerns Enterococcus faecalis ATCC 29212. Put plainly: MIC assay. Particulars: E. faecalis ATCC 29212. The protocol:
as §5, §6, §7

The subject of assay [13] is Gardnerella vaginalis ATCC 14018. Put plainly: MIC assay. The note with it: ATCC14018. The protocol: as §5, §6, §7
The subject of assay [14] is Listeria monocytogenes ATCC 15313. Put plainly: MIC assay. The note with it: ATCC15313, read-out: MIC. The protocol: as §5, §6, §7
In assay [15] the test system is Bacillus cereus ATCC 11778. Description: MIC assay. The note with it: ATCC11778, read-out: MIC. The protocol: as §5, §6, §7
Assay [16] has as its system Streptococcus pyogenes ATCC 12344. Description: MIC assay. The note with it: S. pyogenes ATCC 12344. The protocol: as §5, §6, §7
For assay [17], the system named is Streptococcus sobrinus ATCC 33478. Put plainly: MIC assay. The note with it: ATCC33478. The protocol: as §5, §6, §7
The subject of assay [18] is Streptococcus mutans ATCC 35668. Put plainly: MBC assay. The protocol: as §8, §2, §3
Assay [19] deals with Streptococcus mutans ATCC 25175. Description: MBC assay. The protocol: as §8, §2, §3
Assay [20] deals with Porphyromonas gingivalis ATCC 53978. Description: MBC assay. The protocol: (§9) The P. gingivalis strains were cultured and maintained on Wilkins-Chalgren Anaerobe Medium (agar and broth) at pH 7.0; all cultures were incubated anaerobically at 37° C. for 5-7 days.
as §2, §3

Assay [21] has as its system Porphyromonas gingivalis NCTC 11834. Put plainly: MBC assay. The protocol: as §9, §2, §3
Assay [22] concerns Porphyromonas gingivalis ATCC BAA-308. Put plainly: MBC assay. The protocol: as §9, §2, §3
Assay [23] relates to Porphyromonas gingivalis ATCC 53978. Put plainly: MIC assay. The note with it: ATCC53978. The protocol:
as §9, §5, §6, §7

The subject of assay [24] is Porphyromonas gingivalis NCTC 11834. Description: MIC assay. Particulars: NCTC11834. The protocol:
as §9, §5, §6, §7

Assay [25] concerns Porphyromonas gingivalis ATCC BAA-308. Put plainly: MIC assay. Particulars: ATCCBAA308. The protocol: as §9, §5, §6, §7
Assay [26] concerns Actinomyces naeslundii ATCC 12104. Put plainly: MBC assay. The protocol: as §2, §3
Assay [27] has as its system Clostridium sporogenes ATCC 3584. Put plainly: MBC assay. The protocol: as §2, §3
Assay [28] has as its system Clostridium difficile ATCC 7000057. Put plainly: MBC assay. The protocol: as §2, §3
In assay [29] the test system is Prevotella nigrescens ATCC 33563. Description: MBC assay. The protocol: as §2, §3
For assay [30], the system named is Gardnerella vaginalis ATCC 14018. Description: MBC assay. The protocol: as §2, §3
The subject of assay [31] is Listeria monocytogenes ATCC 15313. Description: MBC assay. The protocol: as §2, §3
For assay [32], the system named is Bacillus cereus ATCC 11778. Put plainly: MBC assay. The protocol: as §2, §3
The subject of assay [33] is Streptococcus sobrinus ATCC 33478. Put plainly: MBC assay. The protocol:
as §2, §3

Regarding `CC(C)(C)c1cc(Cc2cc(C(C)(C)C)c(O)c(C(C)(C)C)c2)cc(C(C)(C)C)c1O` [4,4′-methylenebis(2,6-di-tert-butylphenol), reference compound], the MBC in assay [1] and in assay [2] was over 250 µg/mL in each case. Further, the MIC in [3] and in assay [4] was over 250 µg/mL each time.
In the case of `CC(c1cc(C(C)(C)C)cc(C(C)(C)C)c1O)c1cc(C(C)(C)C)cc(C(C)(C)C)c1O` [2,2′-ethylidene-bis(4,6-di-tert-butylphenol), reference compound], the MBC in assay [1] and in assay [2] was over 250 µg/mL in each case. Further, the MIC in [3] and in assay [4] was over 250 µg/mL each time.
Take `CCc1cc(Cc2cc(CC)cc(C(C)(C)C)c2O)c(O)c(C(C)(C)C)c1` [AO 425, 2,2′-methylene-bis(4-ethyl-6-tert-butylphenol)]: the MIC – broadly, the lowest concentration found to suppress growth – in assay [5] was 7.8 µg/mL (≈ 21.2 µM); in assay [6] it was 15.6 µg/mL (≈ 42.3 µM); in [7] it was 0.98 µg/mL (≈ 2.66 µM); in [9], 3.9 µg/mL (≈ 10.6 µM); in assay [10], 7.8 µg/mL (≈ 21.2 µM); in assay [11] it was 15.6 µg/mL (≈ 42.3 µM). Further, the MIC in assay [13] is 15.6 µg/mL (≈ 42.3 µM); in [14], 0.98 µg/mL (≈ 2.66 µM); in assay [15], 1.95 µg/mL (≈ 5.29 µM); in assay [17] it was 31.2 µg/mL (≈ 84.8 µM); in assay [23] it was 0.98 µg/mL (≈ 2.66 µM); in assay [24] it was 1.95 µg/mL (≈ 5.29 µM). Moreover, the MIC was determined as 1.95 µg/mL (≈ 5.29 µM) in assay [25], 7.8 µg/mL (≈ 21.2 µM) in assay [3] and 7.8 µg/mL (≈ 21.2 µM) in [4]. The MBC (in general, the smallest concentration meeting the test's criterion for killing) in assay [1] is 31.2 µg/mL (≈ 84.8 µM); in [18] (ATCC35668), over 250 µg/mL; in assay [19] (ATCC25175) it was 62.5 µg/mL (≈ 170 µM); in [20] (ATCC53978, read-out: MBC), 0.98 µg/mL (≈ 2.66 µM); in assay [21] (NCTC11834), 1.95 µg/mL (≈ 5.29 µM); in [22] (ATCCBAA308), 3.9 µg/mL (≈ 10.6 µM). Moreover, the MBC in assay [2] is 62.5 µg/mL (≈ 170 µM); in assay [26] (ATCC12104) it was 3.9 µg/mL (≈ 10.6 µM); in assay [27] (ATCC3584), 7.8 µg/mL (≈ 21.2 µM); in assay [28] (Clostridioides difficile, ATCC7000057), 7.8 µg/mL (≈ 21.2 µM); in assay [29] (ATCC33563) it was over 15.6 µg/mL; in assay [30] (ATCC14018), 31.2 µg/mL (≈ 84.8 µM). The figures for the MBC in [31] (ATCC15313), in assay [32] (ATCC11778) and in [33] (ATCC33478) were 7.8 µg/mL (≈ 21.2 µM), 3.9 µg/mL (≈ 10.6 µM) and 62.5 µg/mL (≈ 170 µM), respectively. Besides, the MIC/MBC Ratio in assay [1] is on record as 0.25; in [18] it was under 0.03; in assay [19], 0.25; in assay [20] it was 1; in [21] it was 1; in assay [22] it was 0.5. Also, the MIC/MBC Ratio in [2] is 0.125; in [26], 0.25; in assay [27], 0.5; in [28], 1; in [29] it was under 1; in assay [30], 0.5. For the same compound, the “MIC/MBC Ratio” value in assay [31] was found to be 0.125; in assay [32], 0.5; in assay [33], 0.5. Besides, the “activity compared with AO 2246” value in [8], in assay [12] and in assay [16] was “significantly lower activity” each time.
